Converted amounts (≈) assume the structure as drawn. The source made the active and inactive calls. No cut-off for these calls is given here.
Key:
[1] = Apparent permeability across basolateral to apical side in MDCK-II cells at 10 micromol/L incubated for 1 hrs by UPLC/MS analysis; format: ADME, cell-based, Canis lupus familiaris; conditions: dog, mdck-ii, 1 h, 10 µM, dose 10 µmol/L
[2] = AUClast in female CD-1 mouse at 3 mg/kg, iv administered as 5% v/v NMP, 5% v/v solutol HS-15 and 70% v/v normal saline formulation and measured after 24 hrs; format: ADME, organism-based; conditions: in vivo
[3] = Cmax in female CD-1 mouse at 10 mg/kg, po administered as 5% v/v NMP, 5% v/v solutol HS-15 and 70% v/v normal saline formulation and measured after 24 hrs; format: ADME, organism-based; conditions: in vivo
[4] = Metabolic stability in human hepatocytes assessed as half-life; format: ADME, cell-based, Hepatocyte
[5] = Stability in mouse plasma assessed as half-life at 10 uM measured upto 48 hrs by UPLC-MS/MS analysis; format: ADME, cell-free; conditions: 48 h, 10 µM
MOLM-13 [6] = assay: Antiproliferative activity against human MOLM-13 cells incubated for 72 hrs by Cell-Titer Glo assay; format: functional, cell-based; conditions: MOLM-13, 72 h
[7] = Cmax in female CD-1 mouse at 3 mg/kg, iv administered as 5% v/v NMP, 5% v/v solutol HS-15 and 70% v/v normal saline formulation and measured after 24 hrs; format: ADME, organism-based; conditions: in vivo
[8] = Solubility of compound at pH 7.4 incubated for 18 hrs by UV-spectra analysis; format: physicochemical; conditions: buffer; for solubility: pH 7.4, 18 h
[9] = molecular target: T1, Cereblon/Casein kinase I alpha (Homo sapiens, UniProt P48729+Q96SW2); assay: PROTAC activity at CRBN/HiBiT-tagged CK1alpha in HEK293 cells transfected with LgBiT expression vector assessed as induction of CK1alpha degradation measured after 24 hrs by luminescence based GloMax Discover assay; format: cell-based
Target sequence in this assay (P48729 whole entry): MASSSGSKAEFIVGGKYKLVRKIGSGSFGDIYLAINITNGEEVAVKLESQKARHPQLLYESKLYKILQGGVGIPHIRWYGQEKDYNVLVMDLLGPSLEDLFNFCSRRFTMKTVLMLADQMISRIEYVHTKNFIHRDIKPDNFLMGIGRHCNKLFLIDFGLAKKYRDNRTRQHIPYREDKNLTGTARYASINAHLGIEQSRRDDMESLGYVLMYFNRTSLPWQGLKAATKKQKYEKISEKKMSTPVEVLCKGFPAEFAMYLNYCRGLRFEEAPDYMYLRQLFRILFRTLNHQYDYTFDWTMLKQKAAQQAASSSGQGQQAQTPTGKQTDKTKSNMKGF
Target sequence in this assay (Q96SW2 whole entry): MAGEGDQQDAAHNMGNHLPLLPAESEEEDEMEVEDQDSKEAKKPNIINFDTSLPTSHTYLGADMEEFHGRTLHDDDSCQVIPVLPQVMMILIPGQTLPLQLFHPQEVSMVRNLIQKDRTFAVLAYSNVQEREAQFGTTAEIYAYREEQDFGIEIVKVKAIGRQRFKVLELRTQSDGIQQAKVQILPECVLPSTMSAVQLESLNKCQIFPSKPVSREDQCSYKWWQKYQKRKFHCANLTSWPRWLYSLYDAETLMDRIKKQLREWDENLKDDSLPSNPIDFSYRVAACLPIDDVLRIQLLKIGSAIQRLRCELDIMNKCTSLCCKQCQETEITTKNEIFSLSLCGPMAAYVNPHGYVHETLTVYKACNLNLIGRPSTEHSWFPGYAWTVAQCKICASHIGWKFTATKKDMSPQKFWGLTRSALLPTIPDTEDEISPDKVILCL

[10] = Oral bioavailability in female CD-1 mouse at 10 mg/kg administered as 5% v/v NMP, 5% v/v solutol HS-15 and 70% v/v normal saline formulation and measured after 24 hrs; format: ADME, organism-based; conditions: in vivo
[11] = molecular target: T1, Cereblon/Casein kinase I alpha; assay: PROTAC activity at CRBN/HiBiT-tagged CK1alpha in HEK293 cells transfected with LgBiT expression vector assessed as induction of CK1alpha degradation by measuring degradation rate at 10 uM measured after 24 hrs by luminescence based GloMax Discover assay; format: cell-based
Target sequence in this assay (P48729 2-337 limits assumed): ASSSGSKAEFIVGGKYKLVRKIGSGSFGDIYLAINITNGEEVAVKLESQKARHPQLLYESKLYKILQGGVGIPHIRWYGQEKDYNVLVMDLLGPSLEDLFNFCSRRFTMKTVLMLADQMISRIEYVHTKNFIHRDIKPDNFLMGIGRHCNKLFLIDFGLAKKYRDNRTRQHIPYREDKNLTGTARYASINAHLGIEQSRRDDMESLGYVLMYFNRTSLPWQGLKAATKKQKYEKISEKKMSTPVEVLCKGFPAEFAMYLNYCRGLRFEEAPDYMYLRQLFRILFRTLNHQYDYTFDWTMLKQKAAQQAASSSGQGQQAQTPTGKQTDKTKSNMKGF
Target sequence in this assay (Q96SW2 whole entry partner): as the sequence (Q96SW2 whole entry) above

[12] = AUClast in female CD-1 mouse at 10 mg/kg, po administered as 5% v/v NMP, 5% v/v solutol HS-15 and 70% v/v normal saline formulation and measured after 24 hrs; format: ADME, organism-based; conditions: in vivo
[13] = Metabolic stability in mouse liver microsomes assessed as half-life at 10 uM measured upto 4 hrs in presence of NADPH by UPLC-MS/MS analysis; format: ADME, Microsome; conditions: microsomes, 4 h, 10 µM
[14] = Volume of distribution at steady state in female CD-1 mouse at 3 mg/kg, iv administered as 5% v/v NMP, 5% v/v solutol HS-15 and 70% v/v normal saline formulation and measured after 24 hrs; format: ADME, organism-based; conditions: in vivo
[15] = molecular target: T1, Cereblon/Casein kinase I alpha; assay: PROTAC activity at CRBN/HiBiT-tagged CK1alpha in HEK293 cells transfected with LgBiT expression vector assessed as induction of CK1alpha degradation by measuring maximal efficacy at 10 uM measured after 24 hrs by luminescence based GloMax Discover assay relative to control; format: cell-based
Target sequence in this assay (P48729 2-337 limits assumed): as the sequence (P48729 2-337 limits assumed) above
Target sequence in this assay (Q96SW2 whole entry partner): as the sequence (Q96SW2 whole entry) above

[16] = Half-life in female CD-1 mouse at 3 mg/kg, iv administered as 5% v/v NMP, 5% v/v solutol HS-15 and 70% v/v normal saline formulation and measured after 24 hrs; format: ADME, organism-based; conditions: in vivo
[17] = Apparent permeability across apical to basolateral side in MDCK-II cells at 10 micromol/L incubated for 1 hrs by UPLC/MS analysis; format: ADME, cell-based, Canis lupus familiaris; conditions: dog, mdck-ii, 1 h, 10 µM, dose 10 µmol/L
[18] = molecular target: T1, Cereblon/Casein kinase I alpha; assay: Binding affinity to Halo-tagged CRBN (unknown origin)/HiBiT-tagged CK1alpha in HEK293 cells transfected with LgBiT expression vector assessed as ternary complex formation by measuring fold increase in NanoBRET signal preincubated with MG132 for 30 mins followed by compound addition and measured after 2 hrs by NanoBRET assay relative to control; format: cell-based
Target sequence in this assay (P48729 2-337 limits assumed): as the sequence (P48729 2-337 limits assumed) above
Target sequence in this assay (Q96SW2 whole entry partner): as the sequence (Q96SW2 whole entry) above

Cereblon/Ikaros [19] = molecular target: T2, Cereblon/Ikaros (Homo sapiens, UniProt Q96SW2+Q13422); assay: Binding affinity to Halo-tagged CRBN (unknown origin)/HiBiT-tagged IKZF1 in human Jurkat cells transfected with LgBiT expression vector assessed as ternary complex formation by measuring fold increase in NanoBRET signal preincubated with MG132 for 30 mins followed by compound addition and measured after 2 hrs by NanoBRET assay relative to control; format: cell-based
T2 sequence (Q96SW2 whole entry): as above
T2 sequence (Q13422 whole entry): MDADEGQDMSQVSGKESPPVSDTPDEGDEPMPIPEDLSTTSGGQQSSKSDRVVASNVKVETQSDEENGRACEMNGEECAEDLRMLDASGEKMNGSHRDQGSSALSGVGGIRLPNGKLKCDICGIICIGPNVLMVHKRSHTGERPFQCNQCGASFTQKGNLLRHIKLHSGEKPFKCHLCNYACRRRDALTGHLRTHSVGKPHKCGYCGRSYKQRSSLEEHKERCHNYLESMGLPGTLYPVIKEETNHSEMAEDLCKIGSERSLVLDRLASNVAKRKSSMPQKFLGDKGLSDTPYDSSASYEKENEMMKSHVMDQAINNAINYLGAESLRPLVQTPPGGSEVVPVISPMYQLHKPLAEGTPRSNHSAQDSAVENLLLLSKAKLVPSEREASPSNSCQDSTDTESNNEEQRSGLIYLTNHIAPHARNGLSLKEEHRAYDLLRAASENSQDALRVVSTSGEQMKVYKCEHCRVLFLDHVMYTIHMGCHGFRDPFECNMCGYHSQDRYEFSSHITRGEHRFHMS

[20] = molecular target: T1, Cereblon/Casein kinase I alpha; assay: Binding affinity to Halo-tagged CRBN (unknown origin)/HiBiT-tagged CK1alpha in HEK293 cells transfected with LgBiT expression vector assessed as ternary complex formation preincubated with MG132 for 30 mins followed by compound addition and measured after 2 hrs by NanoBRET assay; format: cell-based
Target sequence in this assay (P48729 whole entry): as the sequence (P48729 whole entry) above
Target sequence in this assay (Q96SW2 whole entry): as the sequence (Q96SW2 whole entry) above

[21] = Stability in human plasma assessed as half-life at 10 uM measured upto 48 hrs by UPLC-MS/MS analysis; format: ADME, cell-free
HEK293 = assay: Cytotoxicity against HEK293 cells expressing HiBiT-tagged CK1alpha at 0.0001 to 100 uM measured over 24 hrs by Cell-Titer Glo assay; format: toxicity, cell-based; conditions: human, hek293, 24 h, dose 0.0001-100 µM
Jurkat = assay: Cytotoxicity against human Jurkat cells expressing HiBiT-tagged IKZF1 at 0.0001 to 100 uM measured over 24 hrs by Cell-Titer Glo assay; format: toxicity, cell-based; conditions: dose 0.0001-100 µM
[22] = molecular target: Protein cereblon/Eukaryotic peptide chain release factor GTP-binding subunit ERF3A (Homo sapiens) (UniProt Q96SW2+P15170); assay: PROTAC activity at CRBN (unknown origin)/human HiBiT-tagged GSPT1 transfected in HEK293 cells assessed as induction of GSPT1 degradation measured after 24 hrs by Nano-Glo reagent based luminescence analysis; format: cell-based
Sequence of Protein cereblon/Eukaryotic peptide chain release factor GTP-binding subunit ERF3A (Homo sapiens) (P15170 whole entry, looked up): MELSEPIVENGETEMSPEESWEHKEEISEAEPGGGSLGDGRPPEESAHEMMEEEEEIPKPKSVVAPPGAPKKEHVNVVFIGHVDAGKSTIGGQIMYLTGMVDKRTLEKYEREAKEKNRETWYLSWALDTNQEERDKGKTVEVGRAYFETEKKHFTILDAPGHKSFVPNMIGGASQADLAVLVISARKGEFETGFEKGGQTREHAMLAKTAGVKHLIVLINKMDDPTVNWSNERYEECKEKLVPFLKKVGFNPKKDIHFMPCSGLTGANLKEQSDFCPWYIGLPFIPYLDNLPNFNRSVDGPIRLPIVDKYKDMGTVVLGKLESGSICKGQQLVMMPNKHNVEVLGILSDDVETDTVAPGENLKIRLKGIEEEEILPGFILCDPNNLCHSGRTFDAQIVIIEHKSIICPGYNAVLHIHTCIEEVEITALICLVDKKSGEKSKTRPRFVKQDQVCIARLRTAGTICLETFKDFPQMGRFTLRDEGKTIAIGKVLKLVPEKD
Sequence of Protein cereblon/Eukaryotic peptide chain release factor GTP-binding subunit ERF3A (Homo sapiens) (Q96SW2 whole entry, looked up): as the sequence (Q96SW2 whole entry) above

[23] = Metabolic stability in pooled human liver microsomes assessed as half-life at 10 uM measured upto 4 hrs in presence of NADPH by UPLC-MS/MS analysis; format: ADME, Microsome
[24] = molecular target: Protein cereblon/DNA damage-binding protein 1 (Homo sapiens) (UniProt Q96SW2+Q16531); assay: Binding affinity to 6-His tagged CRBN/DDB1 (unknown origin) incubated for 1 hrs in presence of Cy5-O-Len probe by fluorescence polarization assay; format: protein assay
Sequence of Protein cereblon/DNA damage-binding protein 1 (Homo sapiens) (Q16531 2-1140 partner limits assumed): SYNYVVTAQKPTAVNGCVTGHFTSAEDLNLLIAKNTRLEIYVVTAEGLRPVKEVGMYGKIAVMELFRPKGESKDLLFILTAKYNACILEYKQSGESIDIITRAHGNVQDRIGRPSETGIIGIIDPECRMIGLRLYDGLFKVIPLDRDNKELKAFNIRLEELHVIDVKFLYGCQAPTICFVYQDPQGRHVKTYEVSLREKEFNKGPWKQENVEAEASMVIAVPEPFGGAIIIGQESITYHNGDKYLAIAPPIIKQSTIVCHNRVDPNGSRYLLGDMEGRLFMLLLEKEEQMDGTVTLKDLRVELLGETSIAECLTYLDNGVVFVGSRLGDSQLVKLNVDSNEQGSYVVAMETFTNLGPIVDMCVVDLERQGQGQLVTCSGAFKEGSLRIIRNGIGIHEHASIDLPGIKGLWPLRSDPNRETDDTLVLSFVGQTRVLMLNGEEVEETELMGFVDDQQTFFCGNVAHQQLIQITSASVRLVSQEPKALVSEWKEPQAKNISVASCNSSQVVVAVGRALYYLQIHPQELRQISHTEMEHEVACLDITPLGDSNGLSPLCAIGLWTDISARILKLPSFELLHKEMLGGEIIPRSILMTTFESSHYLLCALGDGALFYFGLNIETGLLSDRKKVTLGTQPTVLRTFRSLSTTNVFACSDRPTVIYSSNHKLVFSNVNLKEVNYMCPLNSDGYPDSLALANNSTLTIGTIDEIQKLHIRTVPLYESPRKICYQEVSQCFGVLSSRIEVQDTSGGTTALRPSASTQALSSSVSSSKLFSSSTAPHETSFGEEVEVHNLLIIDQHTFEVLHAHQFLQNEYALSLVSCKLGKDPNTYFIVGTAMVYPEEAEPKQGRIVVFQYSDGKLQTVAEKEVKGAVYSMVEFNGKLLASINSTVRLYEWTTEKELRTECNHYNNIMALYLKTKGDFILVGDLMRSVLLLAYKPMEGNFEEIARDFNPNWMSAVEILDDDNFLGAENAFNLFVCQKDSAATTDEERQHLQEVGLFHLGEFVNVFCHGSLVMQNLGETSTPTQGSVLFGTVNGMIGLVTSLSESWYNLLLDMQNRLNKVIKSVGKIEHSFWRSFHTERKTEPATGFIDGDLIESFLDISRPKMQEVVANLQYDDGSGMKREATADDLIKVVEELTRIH
Sequence of Protein cereblon/DNA damage-binding protein 1 (Homo sapiens) (Q96SW2 whole entry): as the sequence (Q96SW2 whole entry) above

Cereblon/Ikaros [25] = molecular target: Cereblon/Ikaros (Homo sapiens, UniProt Q13422+Q96SW2); assay: Binding affinity to Halo-tagged CRBN (unknown origin)/HiBiT-tagged IKZF1 in human Jurkat cells transfected with LgBiT expression vector assessed as ternary complex formation preincubated with MG132 for 30 mins followed by compound addition and measured after 2 hrs by NanoBRET assay; format: cell-based
Sequence of Cereblon/Ikaros (Homo sapiens, UniProt Q13422+Q96SW2) (Q96SW2 whole entry): as above
Sequence of Cereblon/Ikaros (Homo sapiens, UniProt Q13422+Q96SW2) (Q13422 whole entry): as the sequence (Q13422 whole entry) above

Cereblon/Ikaros [26] = molecular target: T2, Cereblon/Ikaros; assay: PROTAC activity at CRBN/HiBiT-tagged IKZF1 in human Jurkat cells transfected with LgBiT expression vector assessed as induction of IKZF1 degradation measured after 24 hrs by luminescence based GloMax Discover assay; format: cell-based
Cereblon/Ikaros [27] = molecular target: T2, Cereblon/Ikaros; assay: PROTAC activity at CRBN/HiBiT-tagged IKZF1 in human Jurkat cells transfected with LgBiT expression vector assessed as induction of IKZF1 degradation by measuring maximal efficacy at 10 uM measured after 24 hrs by luminescence based GloMax Discover assay relative to control; format: cell-based
MOLM-13 [28] = assay: Downregulation of CK1alpha protein level in human MOLM-13 cells at 1 uM measured after 4 hrs by TMT-proteomic analysis; format: functional, cell-based
[29] = Metabolic stability in CD1 mouse hepatocytes assessed as half-life; format: ADME, cell-based, Hepatocyte; conditions: mouse
[30] = Oral bioavailability in female CD-1 mouse at 10 mg/kg administered as 5% v/v NMP, 5% v/v solutol HS-15, 20% PEG 400 and 70% v/v normal saline formulation and measured after 24 hrs; format: ADME, organism-based; conditions: in vivo
[31] = Half-life in female CD-1 mouse at 3 mg/kg, iv administered as 5% v/v NMP, 5% v/v solutol HS-15, 20% PEG 400 and 70% v/v normal saline formulation and measured after 24 hrs; format: ADME, organism-based; conditions: in vivo
[32] = Cmax in female CD-1 mouse at 3 mg/kg, iv administered as 5% v/v NMP, 5% v/v solutol HS-15, 20% PEG 400 and 70% v/v normal saline formulation and measured after 24 hrs; format: ADME, organism-based; conditions: in vivo
[33] = AUClast in female CD-1 mouse at 3 mg/kg, iv administered as 5% v/v NMP, 5% v/v solutol HS-15, 20% PEG 400 and 70% v/v normal saline formulation and measured after 24 hrs; format: ADME, organism-based; conditions: in vivo
[34] = Cmax in female CD-1 mouse at 10 mg/kg, po administered as 5% v/v NMP, 5% v/v solutol HS-15, 20% PEG 400 and 70% v/v normal saline formulation and measured after 24 hrs; format: ADME, organism-based; conditions: in vivo
[35] = AUClast in female CD-1 mouse at 10 mg/kg, po administered as 5% v/v NMP, 5% v/v solutol HS-15, 20% PEG 400 and 70% v/v normal saline formulation and measured after 24 hrs; format: ADME, organism-based; conditions: in vivo
[36] = Volume of distribution at steady state in female CD-1 mouse at 3 mg/kg, iv administered as 5% v/v NMP, 5% v/v solutol HS-15, 20% PEG 400 and 70% v/v normal saline formulation and measured after 24 hrs; format: ADME, organism-based; conditions: in vivo

SMILES | Papp [1] | t1/2 [4] | t1/2 [5] | IC50 (MOLM-13 [6]) | solubility [8] | DC50 [9] | Activity [11] | t1/2 [13] | Emax [15] | Papp [17] | t1/2 [21] | t1/2 [23] | also measured
O=C1CCC(N2Cc3cc(Nc4noc5cc(F)ccc45)ccc3C2=O)C(=O)N1 (centres undefined) | 104 nm/s | > 216 min | 17 h | 21 nM | 26 µM (≈ 10.3 µg/mL) | 4 nM | 3.5 h⁻¹ | > 10 h | 95% | 197 nm/s |  |  | AUClast [2]: 911 ng·h/mL; Cmax [3]: 330 ng/mL; Cmax [7]: 4240 ng/mL; F [10]: 10%; AUClast [12]: 306 ng·h/mL; Vdss [14]: 1.34 L/kg; t1/2 [16]: 1.98 h
O=C1CCC(N2Cc3cc(NC(=O)c4ccc(F)cc4)ccc3C2=O)C(=O)N1 (centres undefined) | 5 nm/s |  | 9 h | 82 nM | 30 µM (≈ 11.4 µg/mL) | 10 nM | 1.2 h⁻¹ | > 10 h | 88% | 2 nm/s | 10 h | > 10 h | fold change (FC) [18]: 11; fold change (FC) (Cereblon/Ikaros [19]): 4; EC50 [20]: 178 nM; Activity (HEK293): Non-Toxic; Activity (Jurkat): Non-Toxic; Activity [22]: inactive; Activity [24]: 2.1 µM; EC50 (Cereblon/Ikaros [25]): 650 nM; DC50 (Cereblon/Ikaros [26]): > 10 µM; Emax (Cereblon/Ikaros [27]): 12%
O=C1CCC(N2Cc3cc(Nc4noc5ccccc45)ccc3C2=O)C(=O)N1 (centres undefined) | 262 nm/s | > 216 min | 25 h | 13 nM |  | 1 nM | 3.5 h⁻¹ | > 10 h | 95% | 245 nm/s | 8.5 h | > 10 h | Activity (MOLM-13 [28]): Active; t1/2 [29]: > 216 min; F [30]: 9.5%; t1/2 [31]: 21 min; Cmax [32]: 2700 ng/mL; solubility at 18 h ([8]; pH 7.4): 36 µM (≈ 13.5 µg/mL); AUClast [33]: 832 ng·h/mL; Cmax [34]: 207 ng/mL; AUClast [35]: 264 ng·h/mL; Vdss [36]: 1.11 L/kg
